22 compounds from US7544703B2, “Cyclic compound having 4-pyridylalkylthio group having substituted or unsubstituted amino group introduced therein” (Santen Pharmaceutical Co., Ltd., priority 2004, dated 2009) can be followed below.

Structures can show the parent of a compound that is named as a salt.

In the first assay the test system is HUVEC (normal human umbilical vein endothelial cells). In words: VEGF-induced HUVEC proliferation: cell proliferation inhibitory action test.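 Also: each well holds 100 µL cell suspension before compound addition.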 The format is cell-based. The note with it: 72 h, 5 μL of 20 μg/mL test compound solution per well, WST-8 absorbance at 450 nm three days after VEGF addition, read-out: Cell proliferation inhibition rate (%). As for the experimental part:
A cell proliferation inhibitory action test of the compounds of the present invention was performed using a VEGF-induced HUVEC proliferation evaluation system (HUVEC stands for normal human umbilical vein endothelial cells), which is one of the widely-used methods of evaluating in vitro angiogenesis inhibitory effects of drugs. As one of the widely-used methods of evaluating angiogenesis inhibitory effects of drugs, a cell proliferation inhibitory action test using a VEGF-induced HUVEC proliferation reaction evaluation system has been reported in Cancer Res., 59, 99-106 (1999). According to the method described in the above-mentioned document, a cell proliferation inhibitory action test of the compounds of the present invention was performed, the cell proliferation inhibition rate was calculated, and the angiogenesis inhibitory effect of each of the compounds of the present invention was evaluated using the obtained rate as an index. Each test compound was dissolved in dimethyl sulfoxide (hereinafter abbreviated as DMSO), and the obtained solution was diluted with a commercially available phosphoric acid buffer solution (hereinafter abbreviated as PBS), whereby a 20 μg/mL test compound solution was prepared. HUVEC was suspended in a 0.5% fetal bovine serum (hereinafter abbreviated as FBS)-containing F12K medium, whereby a 2×10^4 cells/mL HUVEC suspension was prepared. VEGF was dissolved in 0.1% bovine serum albumin-containing PBS, and the obtained solution was diluted with the 0.5% FBS-containing F12K medium, whereby a 400 ng/mL VEGF solution was prepared. • 1) The HUVEC suspension was inoculated in an amount of 100 μL into each well of a 96-well plate coated with type I collagen (2×10^3 cells per well). • 2) One day after the inoculation, the test compound solution was added in an amount of 5 μL per well. • 3) One hour after the addition of the test compound solution, the VEGF solution was added in an amount of 5 μL per well. • 4) Three days after the addition of the VEGF solution, WST-8 assay kit (Dojin Chemical Co., Ltd.) was added in an amount of 10 μL per well. • 5) After 3 hours, the above-mentioned plate was attached to an absorptiometer (Multilabel Counter ARVO), and an absorbance at 450 nm of each well suspension (hereinafter referred to as test compound suspension) was measured. • 6) A test was carried out in the same manner as in the above 1) to 5) except that 1.0% DMSO was used instead of the test compound solution. The result was used as a control. Incubation was carried out under conditions of 37° C., 5% carbon dioxide and […] in an incubator throughout the above-mentioned test steps. The cell proliferation inhibition rate (%), which was used as an index of an angiogenesis inhibitory effect, was calculated according to the following calculation equation. Cell proliferation inhibition rate (%)=100−{(Absorbance of test compound suspension−A)/(absorbance of control−A)}×100 (Calculation Equation) A: Absorbance of only cell suspension (cell+medium) (Test Results and Discussion)
As for `CCC(=O)Nc1cc(CSc2ncccc2C(=O)Nc2cc(C)cc(C)c2)ccn1` [Compound 4-2, N-(3,5-Dimethylphenyl)-2-(2-propionylaminopyridin-4-ylmethylthio)pyridine-3-carboxamide], the inhibition at 20 µg/mL (stock) turned out to be 100%. The same measure, in the same setting: next, `CC(C)c1cccc(NC(=O)c2cccnc2SCc2ccnc(N)c2)c1` [Compound 3-2, 2-(2-Aminopyridin-4-ylmethylthio)-N-(3-isopropylphenyl)pyridine-3-carboxamide monohydrochloride]: 97%; `Cc1cc(C)cc(NC(=O)c2cccnc2SCc2ccnc(N3CCOCC3)c2)c1` [Compound 1-4, N-(3,5-Dimethylphenyl)-2-(2-morpholinopyridin-4-ylmethylthio)pyridine-3-carboxamide]: 100%; `CC(=O)Nc1cc(CSc2ccsc2C(=O)Nc2cc(C)cc(C)c2)ccn1` [Compound 4-56, 3-(2-Acetylaminopyridin-4-ylmethylthio)-N-(3,5-dimethylphenyl)thiophene-2-carboxamide]: 99%.

`Cc1cc(C)cc(NC(=O)c2cccnc2SCc2ccnc(NC(=O)OC(C)(C)C)c2)c1` [Compound 2-1, 2-(2-tert-Butoxycarbonylaminopyridin-4-ylmethylthio)-N-(3,5-dimethylphenyl)pyridine-3-carboxamide]: the inhibition at 20 µg/mL (stock) came out at 100%. Same read-out and setting: next, `CN(C)CCN(C)CC(=O)NC(Sc1ncccc1C(=O)Nc1ccc(OC(F)(F)F)cc1)c1ccncc1` (centres unmarked) [Compound 17-28, 2-[2-(N-(2-Dimethylaminoethyl)-N-methylamino)acetylaminopyridin-4-ylmethylthio]-N-(4-trifluoromethoxyphenyl)pyridine-3-carboxamide]: 100%. `CC(C)(C)OC(=O)Nc1cc(CSc2ncccc2C(=O)Nc2ccc(C(C)(C)C)cc2)ccn1` [Compound 2-5, 2-(2-tert-Butoxycarbonylaminopyridin-4-ylmethylthio)-N-(4-tert-butylphenyl)pyridine-3-carboxamide]: the inhibition at 20 µg/mL (stock) turned out to be 95%. On the same count and under the same terms, under `Cc1cc(C)cc(NC(=O)c2cccnc2SCc2ccnc(N3CCN(C)CC3)c2)c1` [Compound 1-1, N-(3,5-Dimethylphenyl)-2-[2-(4-methylpiperazin-1-yl)pyridin-4-ylmethylthio]pyridine-3-carboxamide] stands 97%; under `Cc1cc(C)cc(NC(=O)c2cccnc2SCc2ccnc(NC(=O)C(C)C)c2)c1` [Compound 4-4, N-(3,5-Dimethylphenyl)-2-(2-isobutyrylaminopyridin-4-ylmethylthio)pyridine-3-carboxamide], 100%.

For `NCC(=O)Nc1cc(CSc2ncccc2C(=O)Nc2ccc(OC(F)F)cc2)ccn1` [Compound 18-1, 2-(2-Aminoacetylaminopyridin-4-ylmethylthio)-N-(4-difluoromethoxyphenyl)pyridine-3-carboxamide], the inhibition at 20 µg/mL (stock) worked out at 88%.

In the case of `Nc1cc(CSc2ncccc2C(=O)Nc2ccc3c(c2)CCC3)ccn1` [Compound 3-3, 2-(2-Aminopyridin-4-ylmethylthio)-N-(indan-5-yl)pyridine-3-carboxamide monohydrochloride], the inhibition at 20 µg/mL (stock) was determined as 100%.

For the compound `CC(C)c1cccc(NC(=O)c2cccnc2SCc2ccnc(NC(=O)OC(C)(C)C)c2)c1` [Compound 2-2, 2-(2-tert-Butoxycarbonylaminopyridin-4-ylmethylthio)-N-(3-isopropylphenyl)pyridine-3-carboxamide], the inhibition at 20 µg/mL (stock) was 100%. On the same count and under the same terms, under `Cc1cc(C)cc(NC(=O)c2cccnc2SCc2ccnc(N(C)C(=O)OC(C)(C)C)c2)c1` [Compound 2-7, 2-[2-(N-tert-Butoxycarbonyl-N-methylamino)pyridin-4-ylmethylthio]-N-(3,5-dimethylphenyl)pyridine-3-carboxamide] stands 52%; under `CCCCCNc1cc(CSc2ncccc2C(=O)Nc2cc(C)cc(C)c2)ccn1` [Compound 1-20, N-(3,5-Dimethylphenyl)-2-(2-n-pentylaminopyridin-4-ylmethylthio)pyridine-3-carboxamide], 100%.

With `Nc1cc(CSc2ncccc2C(=O)Nc2ccc3cn[nH]c3c2)ccn1` [Compound 3-5, 2-(2-Aminopyridin-4-ylmethylthio)-N-(1H-indazol-6-yl)pyridine-3-carboxamide monohydrochloride], the inhibition at 20 µg/mL (stock) is 96%. For the compound `Cc1cc(C)cc(NC(=O)c2cccnc2SCc2ccnc(NC(=O)Nc3ccc(Cl)cc3)c2)c1` [Compound 5-3, 2-[2-(N′-4-Chlorophenylureido)pyridin-4-ylmethylthio]-N-(3,5-dimethylphenyl)pyridine-3-carboxamide], the inhibition at 20 µg/mL (stock) was determined as 100%. In the case of `Cc1cc(C)cc(NC(=O)c2cccnc2SCc2ccnc(NC(=O)C(F)(F)F)c2)c1` [Compound 4-3, N-(3,5-Dimethylphenyl)-2-(2-trifluoroacetylaminopyridin-4-ylmethylthio)pyridine-3-carboxamide], the inhibition at 20 µg/mL (stock) was 100%. On the same count and under the same terms, next, `CC(=O)Nc1cc(CSc2ccsc2C(=O)Nc2ccc(Cl)cc2)ccn1` [Compound 4-57, 3-(2-Acetylaminopyridin-4-ylmethylthio)-N-(4-chlorophenyl)thiophene-2-carboxamide]: 100%. Still for that read-out and setting: next, `CNC(=O)Nc1cc(CSc2ncccc2C(=O)Nc2ccc(OC(F)F)cc2)ccn1` [Compound 9-4, N-(4-Difluoromethoxyphenyl)-2-[2-(N′-methylureido)pyridin-4-ylmethylthio]pyridine-3-carboxamide]: 100%.

The subject of another assay is B16 cells. In words: Tumor growth inhibitory action test using cancer models in mice (B16 cells). The note with it: C57BL/6N mouse, B16 cells intradermal; 100 mg/kg/day oral once a day, day 0 to day 10; average of 9 mice per group; read-out: Tumor tissue weight inhibition rate (%). The format is in vivo. Here is the method:
A tumor growth inhibitory action test of the compounds of the present invention was performed using a tumor growth model in mice, which is one of the widely-used methods of evaluating in vivo anticancer effects of drugs.
As one of the widely-used methods of evaluating anticancer effects of drugs, a tumor growth inhibitory action test using cancer models in mice has been reported in Cancer Res., 59, 5209-5218 (1999). According to the method described in the above-mentioned document, a tumor growth inhibitory action test of the compounds of the present invention was performed, the tumor tissue weight inhibition rate was calculated, and the anticancer effect of each of the compounds of the present invention was evaluated using the obtained rate as an index.
A 1% aqueous methyl cellulose solution was added to each test compound to suspend it with a sonicator, whereby a 10 mg/mL test compound suspension was prepared.
Physiological saline was added to B16 cells, whereby a 3.3×10^7 cells/mL B16 cell suspension was prepared.
• 1) The back of each mouse (female, 6 weeks of age, C57BL/6N mouse) was depilated using a depilatory under Nembutal anesthesia. • 2) Several days after the depilation, the B16 cell suspension (300 μL) was injected intradermally into the back of the mouse under Nembutal anesthesia. • 3) From the B16 cell injection day (i.e. on day 0) to day 10, the test compound suspension (100 mg/kg/day) was orally administered once a day consecutively. • 4) Ten days after the injection of the cells, the mouse was euthanized with CO2 gas. • 5) A tumor tissue was enucleated from the mouse, and the weight of the tumor tissue was measured with an electronic balance. • 6) A test was performed in the same manner as in 1) to 5) except that the 1% aqueous methyl cellulose solution was used instead of the test compound suspension, and the result was used as a control. (Calculation of Tumor Tissue Weight Inhibition Rate)
A tumor tissue weight inhibition rate (the average of 9 mice per group), which was used as an index of anticancer effect, was calculated according to the following calculation equation. Tumor tissue weight inhibition rate (%)=100−(Mx/Mo)×100 (Calculation Equation) Mo: Tumor tissue weight of control group Mx: Tumor tissue weight of test compound solution administration group (Test Results and Discussion)
In the case of `CC(=O)Nc1cc(CSc2ncccc2C(=O)Nc2ccc(OC(F)(F)F)c(Cl)c2)ccn1` [Compound 4-14, 2-(2-Acetylaminopyridin-4-ylmethylthio)-N-(3-chloro-4-trifluoromethoxyphenyl)pyridine-3-carboxamide], the inhibition in vivo at 100 mg/kg/day was found to be 44%.

In the case of `CCC(=O)Nc1cc(CSc2ncccc2C(=O)Nc2cc(C)cc(C)c2)ccn1` [Compound 4-2, N-(3,5-Dimethylphenyl)-2-(2-propionylaminopyridin-4-ylmethylthio)pyridine-3-carboxamide], the inhibition in vivo at 100 mg/kg/day stood at 51%. On the same count and under the same terms, next, `CC(C)c1cccc(NC(=O)c2cccnc2SCc2ccnc(N)c2)c1` [Compound 3-2, 2-(2-Aminopyridin-4-ylmethylthio)-N-(3-isopropylphenyl)pyridine-3-carboxamide monohydrochloride]: 61%; `Cc1cc(C)cc(NC(=O)c2cccnc2SCc2ccnc(N3CCOCC3)c2)c1` [Compound 1-4, N-(3,5-Dimethylphenyl)-2-(2-morpholinopyridin-4-ylmethylthio)pyridine-3-carboxamide]: 68%; `CC(=O)Nc1cc(CSc2ccsc2C(=O)Nc2cc(C)cc(C)c2)ccn1` [Compound 4-56, 3-(2-Acetylaminopyridin-4-ylmethylthio)-N-(3,5-dimethylphenyl)thiophene-2-carboxamide]: 42%. Still for that read-out and setting: under `CC(=O)Nc1cc(CSc2ccccc2C(=O)Nc2cc(C)cc(C)c2)ccn1` [Compound 4-43, 2-(2-Acetylaminopyridin-4-ylmethylthio)-N-(3,5-dimethylphenyl)benzamide] stands 47%. As for `CC(=O)Nc1cc(CSc2ncccc2C(=O)Nc2cccc(Cl)c2)ccn1` [Compound 4-16, 2-(2-Acetylaminopyridin-4-ylmethylthio)-N-(3-chlorophenyl)pyridine-3-carboxamide], the inhibition in vivo at 100 mg/kg/day worked out at 74%.
